Converted amounts (≈) assume the structure as drawn. Where a SMILES comes first, the peptide text is derived from it. Where no end group is shown, it is not given here. [ ]: non-standard residue; d: D form. The star is where a group is joined. Octanoyl = CCCCCCCC(=O)*
Columns and labels:
[1] = system: S. enterica serovar Typhimurium 14 028s PmrAB knockout; type: cell-based; conditions: broth microdilution, serial twofold dilution in MNMM, 18–20 h at 37 °C with agitation, read by visible turbidity
Experimental: (§1) The antimicrobial activity of the peptides was examined in sterile 96-wells plates (Nunc F96 microtiter plates) in a final volume of 100 μL as follows. Aliquots (50 μL) of an overnight suspension-containing bacteria (late-log phase diluted 1:5000) were added to 50 μL of modified N-minimal media (MNMM) containing the peptides in a serial twofold dilution, and antibiotics, if required, to select for the specific mutant. Inhibition of growth was determined by the visibility of turbidity in comparison to blank with no growth after an incubation of 18–20 h at 37 °C with agitation. Antibacterial activity was expressed as the minimal inhibitory concentration (MIC) in which no growth could be observed.
(§2) We investigated both natural and de novo-designed AMPs (Table 1). The list includes (i) the human cathelicidin LL-37, (ii) a de novo-designed 15-mer AMP designated K6L9 and (iii) its D,L-amino acid-containing analogue, D,L-K6L9, and (iv) D,L amino acid histidine derivative, D,L-H6L9, (v) a 12-mer D,L-K5L7 and (vi) its caprylic-acid-conjugated analogue C8-D,L-K5L7, and (vii) the frog antimicrobial peptide Temporin L.[23] These peptides have different net positive charges under the experimental conditions, as well as hydrophobicity (represented by RP-HPLC retention times), as indicated in Table 1. The peptides were tested for their antibacterial activity against WT S. enterica serovar Typhimurium ATCC 14028 (S. typhimurium) and its mutants (Table 2). The minimal inhibitory concentration (MIC) was defined using a broth microdilution antimicrobial assay. S. typhimurium have been widely used for the exploration of bacterial resistance acquired from these two TCSs.[52],[53]

[2] = system: S. enterica serovar Typhimurium 14 028s phoP and PmrAB knockout; type: cell-based; conditions: broth microdilution, serial twofold dilution in MNMM, 18–20 h at 37 °C with agitation, read by visible turbidity; phoP and PmrAB double knockout
Experimental: as §1, §2

[3] = system: S. enterica serovar Typhimurium 14 028s phoP knockout; type: cell-based; conditions: broth microdilution, serial twofold dilution in MNMM, 18–20 h at 37 °C with agitation, read by visible turbidity
Experimental: as §1, §2

[4] = system: S. enterica serovar Typhimurium 14 028s wild-type; type: cell-based; conditions: broth microdilution, serial twofold dilution in modified N-minimal media (MNMM), 18–20 h at 37 °C with agitation, read by visible turbidity; WT ATCC 14028
Experimental: as §1, §2

[5] = RP-HPLC retention as measure of hydrophobicity; type: physicochemical; conditions: C18 column, linear gradient 10–90% acetonitrile in water with 0.1% TFA in 40 min, 1.8 mL/min; for retention time: RP-HPLC retention time used as measure of hydrophobicity; for relative hydrophobicity (% ACN): percent of acetonitrile at the retention time, RP-HPLC
Text: The peptides were synthesized by a solid phase method on a rink amide MBHA resin using an ABI 433A automatic peptide synthesizer (Applied Biosystems). The resin-bound peptides (0.1 mequiv each) were cleaved from the resins by trifluoroacetic acid (TFA), washed with dry ether, and extracted with acetonitrile/water (50% v/v). All peptides were amidated at their C terminus. The peptides were further purified by reverse-phase high-pressure liquid chromatography (RP-HPLC) on a C18 reverse-phase Bio-Rad column (250 × 10 mm^2, 300 Å pore size, 5 μm particle size). A linear gradient of 10–90% acetonitrile in water containing 0.1% TFA (v/v) in 40 min was used at a flow rate of 1.8 mL/min. […] Electrospray mass spectroscopy confirmed their identity.[23]
as §2

| Compound | MIC, pmrAB-KO [1] [µM] | MIC, DKO [2] [µM] | MIC, phoP-KO [3] [µM] | MIC, WT [4] [µM] | retention time [5] [min] | relative hydrophobicity (% ACN) [5] [% ACN] |
| --- | --- | --- | --- | --- | --- | --- |
| CC(C)C[C@H](NC(=O)[C@H](CC(C)C)NC(=O)[C@@H](Cc1c[nH]cn1)NC(=O)[C@H](CC(C)C)NC(=O)[C@H](CC(C)C)NC(=O)[C@H](Cc1c[nH]cn1)NC(=O)[C@@H](Cc1c[nH]cn1)NC(=O)[C@@H](CC(C)C)NC(=O)[C@H](CC(C)C)NC(=O)[C@@H](Cc1c[nH]cn1)NC(=O)[C@H](Cc1c[nH]cn1)NC(=O)[C@H](CC(C)C)NC(=O)[C@@H](CC(C)C)NC(=O)[C@H](Cc1c[nH]cn1)NC(=O)[C@@H](N)CC(C)C)C(N)=O [D,L-H6L9] (H-LH[dL]LH[dH]L[dL][dH]HLL[dH]LL-NH2; N-terminus assumed) | 50 (≈ 92.9 µg/mL) | 50 (≈ 92.9 µg/mL) | 50 (≈ 92.9 µg/mL) | 100 (≈ 186 µg/mL) | 29.3 | 68.6 |
| CC(C)C[C@H](NC(=O)[C@H](CCCCN)NC(=O)[C@@H](CC(C)C)NC(=O)[C@@H](CC(C)C)NC(=O)[C@H](CCCCN)NC(=O)[C@@H](N)CCCCN)C(=O)N[C@@H](CC(C)C)C(=O)N[C@H](CC(C)C)C(=O)N[C@@H](CCCCN)C(=O)N[C@H](CC(C)C)C(=O)N[C@@H](CC(C)C)C(=O)N[C@@H](CCCCN)C(N)=O [D,L-K5L7] (H-KK[dL][dL]KLL[dL]K[dL]LK-NH2; N-terminus assumed) | 12.5 (≈ 18.1 µg/mL) | 3.125 (≈ 4.53 µg/mL) | 1.56 (≈ 2.26 µg/mL) | 6.25 (≈ 9.06 µg/mL) | 23.5 | 57 |
| CCCCCCCC(=O)N[C@@H](CCCCN)C(=O)N[C@@H](CCCCN)C(=O)N[C@H](CC(C)C)C(=O)N[C@H](CC(C)C)C(=O)N[C@@H](CCCCN)C(=O)N[C@@H](CC(C)C)C(=O)N[C@@H](CC(C)C)C(=O)N[C@H](CC(C)C)C(=O)N[C@@H](CCCCN)C(=O)N[C@H](CC(C)C)C(=O)N[C@@H](CC(C)C)C(=O)N[C@@H](CCCCN)C(N)=O [C8-D,L-K5L7] (Octanoyl-KK[dL][dL]KLL[dL]K[dL]LK-NH2) | 6.25 (≈ 9.85 µg/mL) | 3.125 (≈ 4.93 µg/mL) | 3.125 (≈ 4.93 µg/mL) | 3.125 (≈ 4.93 µg/mL) | 29.1 | 68.2 |
| LKLLKKLLKKLLKLL-NH2 [L-K6L9] | 3.125 | 3.125 | 0.39 | 1.56 | – | – |
| FVQWFSKFLGRIL-NH2 [Temporin L, reference compound] | 25 | 25 | 12.5 | 25 | – | – |
| CC(C)C[C@H](NC(=O)[C@H](CC(C)C)NC(=O)[C@@H](CCCCN)NC(=O)[C@H](CC(C)C)NC(=O)[C@H](CC(C)C)NC(=O)[C@H](CCCCN)NC(=O)[C@@H](CCCCN)NC(=O)[C@@H](CC(C)C)NC(=O)[C@H](CC(C)C)NC(=O)[C@@H](CCCCN)NC(=O)[C@H](CCCCN)NC(=O)[C@H](CC(C)C)NC(=O)[C@@H](CC(C)C)NC(=O)[C@H](CCCCN)NC(=O)[C@@H](N)CC(C)C)C(N)=O [D,L-K6L9] (H-LK[dL]LK[dK]L[dL][dK]KLL[dK]LL-NH2; N-terminus assumed) | 1.56 (≈ 2.82 µg/mL) | 0.78 (≈ 1.41 µg/mL) | 0.39 (≈ 0.704 µg/mL) | 1.56 (≈ 2.82 µg/mL) | 27.7 | 65.4 |
| CC[C@H](C)[C@H](NC(=O)[C@H](CCCCN)NC(=O)[C@H](CCC(=O)O)NC(=O)[C@H](CCCCN)NC(=O)[C@H](CO)NC(=O)[C@H](CCCCN)NC(=O)[C@H](CCCNC(=N)N)NC(=O)[C@H](Cc1ccccc1)NC(=O)[C@H](Cc1ccccc1)NC(=O)[C@H](CC(=O)O)NC(=O)CNC(=O)[C@H](CC(C)C)NC(=O)[C@@H](N)CC(C)C)C(=O)NCC(=O)N[C@@H](CCCCN)C(=O)N[C@@H](CCC(=O)O)C(=O)N[C@@H](Cc1ccccc1)C(=O)N[C@@H](CCCCN)C(=O)N[C@@H](CCCNC(=N)N)C(=O)N[C@H](C(=O)N[C@H](C(=O)N[C@@H](CCC(N)=O)C(=O)N[C@@H](CCCNC(=N)N)C(=O)N[C@H](C(=O)N[C@@H](CCCCN)C(=O)N[C@@H](CC(=O)O)C(=O)N[C@@H](Cc1ccccc1)C(=O)N[C@@H](CC(C)C)C(=O)N[C@@H](CCCNC(=N)N)C(=O)N[C@@H](CC(N)=O)C(=O)N[C@@H](CC(C)C)C(=O)N[C@H](C(=O)N1CCC[C@H]1C(=O)N[C@@H](CCCNC(=N)N)C(=O)N[C@H](C(=O)N[C@@H](CCC(=O)O)C(=O)N[C@@H](CO)C(N)=O)[C@@H](C)O)C(C)C)[C@@H](C)CC)C(C)C)[C@@H](C)CC [LL-37, reference compound] | 6.25 (≈ 28.1 µg/mL) | 3.125 (≈ 14 µg/mL) | 1.56 (≈ 7.01 µg/mL) | 3.125 (≈ 14 µg/mL) | – | – |

— PMC8638962, “Opposing Effects of PhoPQ and PmrAB on the Properties of Salmonella enterica serovar Typhimurium: Implications on Resistance to Antimicrobial Peptides” (Biochemistry, 2021)
